We go through two molecules from paper PMC9658984, “Acetylation Enhances the Anticancer Activity and Oral Bioavailability of 5-Demethyltangeretin” (International Journal of Molecular Sciences, 2022).

The structures appear in SMILES notation. Marks after values point to notes of the source that are not given here.

The subject of data set [1] is PC-3 human prostate cancer cells. The data set can be described thus: MTT cell viability assay. It is filed as cell-based. To be noted: Homo sapiens; PC-3 cells, 48 h, MTT. Here is the method: PC-3 human prostate cancer cell line was obtained from the Bioresource Collection and Research Center (Hsinchu, Taiwan) and maintained in RPMI medium with 10% FBS and 1% penicillin-streptomycin (PS). The cells were incubated in a 5% CO2 humidified atmosphere at 37 °C. TAN, 5-DTAN, and 5-ATAN were dissolved in DMSO to prepare a 20 mM sample stock, and the final ratio of the DMSO in the treatment medium was 0.1%.
(§1) PC-3 cells were seeded in 96-well plates at a density of 2.5 × 10^3 cells/well and allowed to attach for 24 h. The medium was changed to serum-free RPMI supplemented with 0–20 μM TAN, 5-DTAN, or 5-ATAN, and then incubated for an additional 48 h. The cell viability was determined by the MTT assay and represented as a percentage of the growth of the DMSO-treated cells. FACScan flow cytometer (Becton Dickinson, San Jose, CA, USA) was used to analyze the cell cycle distribution as previously mentioned. Briefly, PC-3 cells treated with various concentrations of 5-DTAN or 5-ATAN for 48 h were trypsinized and gently fixed in 70% ice-cold ethanol and stored at −20 °C for at least 24 h. Then, the cells were washed with cold phosphate-buffered saline (PBS), followed by incubation with 40 μg/mL PI, 0.1 mg/mL RNase A, and 0.1% TritonX-100 in the dark for 30 min at room temperature. Subsequently, the cell cycle distribution of the PI-stained cells was analyzed by a FACScan flow cytometer, and the results were analyzed and calculated using ModFit LT Ver. 3.0 software. The proportion of the sub-G1 phase was quantitated and represented as the apoptotic ratio. Furthermore, a QIAamp DNA mini kit was used to extract DNA from the PC-3 cells treated with 5-DTAN or 5-ATAN for 48 h. Then, the extracted DNA was loaded on a 2% agarose gel containing HealthView^TM Nucleic Acid Stain (Genomics, New Taipei, Taiwan) for electrophoresis at 50 V. The gel was visualized under UV light, and the DNA fragmentation pattern was photographed.

In data set [2] the test system is PC-3 cells. The data set can be described thus: Cell cycle distribution / sub-G1 apoptotic ratio by PI flow cytometry. It is filed as cell-based, human. To be noted: 48 h. The method, then:
as §1

For data set [3], the system named is PC-3 cells. Nature of the data set: DNA fragmentation (agarose gel electrophoresis). To be noted: 48 h. The class given is cell-based, human. The method, then:
as §1, with “Then, the extracted DNA was loaded on a 2% agarose gel containing HealthView^TM Nucleic Acid Stain (Genomics, New Taipei, Taiwan) for electrophoresis at 50 V. The gel was visualized under UV light, and the DNA fragmentation pattern was photographed.” left out

For data set [4], the system named is PC-3 cell xenografts. The data set can be described thus: Tumor growth inhibition in PC-3 cell xenograft model. The class given is in vivo, nude mice. From the text:
Male nu/nu mice were obtained from BioLasco Taiwan (Taipei, Taiwan) and maintained on a standard laboratory chow (Purina rodent chow 5001, Purina, St. Louis, MO, USA). At 5 weeks of age, nude mice were used for the xenograft experiment. For the oral bioavailability study, 5-week-old male […] mice were purchased from the National Laboratory Animal Center (Taipei, Taiwan), and the experiment was started after 1 week of acclimation. All mice were housed in an air-conditioned room (temperature: 22 ± 2 °C; humidity: 50–60%) under standard conditions (12 h light/12 h dark cycle). All animal studies were approved by the National Pingtung University of Science and Technology, Institutional Animal Care and Use Committee with protocol numbers NPUST-102-015 and NPUST-105-045.
The 5-week-old nude mice were divided into three groups (n = 6) and administered with the vehicle, 5-DTAN (10 mg/kg), and 5-ATAN (10 mg/kg), respectively. Tumors were established by subcutaneous injections of PC-3 cells (1 × 10^6 cells) into the right flank side of nude mice. The tumor size was measured twice a week with digital calipers, and the tumor volume (V) was calculated by the following formula: V = length × width^2 × 0.5. On day 24, the mice were sacrificed by CO2, and the tumors were harvested and weighed.

Details of data set [5]: method as in doi:10.1016/j.jff.2008.09.003. To be noted: cited from earlier work.

Turning to `COc1ccc(-c2cc(=O)c3c(O)c(OC)c(OC)c(OC)c3o2)cc1` [5-DTAN, 5-hydroxy-6,7,8,4′-tetramethoxyflavone, reference compound], the 50% inhibitory concentration (IC50) – broadly, the point on the concentration scale where inhibition reaches its midpoint – in data set [1] was found to be 11.8 µM. In addition, the “Cell Cycle Distribution (%) G0/G1” value is on record as 60.2 ± 2.8 ^b % in data set [2] (2.5 μM), 59.9 ± 0.4 ^b % in data set [2] (5 μM) and 58.2 ± 2.4 ^b % in data set [2] (10 μM). Moreover, the figures for the “Cell Cycle Distribution (%) G2/M” value in data set [2] (2.5 μM), in data set [2] (5 μM) and in data set [2] (10 μM) were 31.6 ± 2.7 ^a %, 31.4 ± 0.5 ^a % and 32.6 ± 1.1 ^a %, respectively. In addition, the figures for the “Cell Cycle Distribution (%) S” value in data set [2] (2.5 μM), in data set [2] (5 μM) and in data set [2] (10 μM) were 8.2 ± 0.1%, 8.7 ± 0.3% and 8.5 ± 0.9%, respectively. Moreover, the “Concentration at which DNA ladders were observed” value in data set [3] was 20 µM. Further, the “Tumor growth inhibitory rate, estimated by the means of tumor weight” value in data set [4] (10 mg/kg daily oral, nude mice) is 43.7%. The “Tumor weight at the end of the experiment” value in data set [4] (10 mg/kg daily oral, nude mice, day 24, control 2.47 ± 0.43 g) is recorded as 1.39 ± 0.36 g. Moreover, the “Effect on tumor volume” value in data set [4] (10 mg/kg daily, PC-3 cell xenografts in nude mice) is listed as “significantly suppressed”. Besides, in data set [5], the “Solubility in biological systems” value was “extremely poor solubility”.

As to `COc1ccc(-c2cc(=O)c3c(OC)c(OC)c(OC)c(OC)c3o2)cc1` [TAN, 5,6,7,8,4′-pentamethoxyflavone, reference compound], in data set [1], half-maximal inhibition (IC50) required 17.2 µM.
